Data from US20240110150A1, “PHOTON UPCONVERSION BIOMATERIALS, MICELLE AND NANOPARTICLES FOR THREE-DIMENSIONAL (3D) OPTOGENETICS” (THE TRUESTEES OF COLUMBIA UNIVERSITY IN THE CITY OF NEW YORK, priority 2020, published 2024).

System: HeLa cells
Assay: Cell viability assay (Cell-Titer-Glo) of emulsions, one hour
Type: cell-based
Method: HeLa cells (obtained from American Type Culture Collection) were maintained in Dulbecco's Modified Eagle's Medium (Gibco) supplemented with 10% fetal bovine serum (Invitrogen) at 37° C. in a humidified 5% CO2 atmosphere. For viability assays testing biocompatibility of the emulsions, cells were plated in a 96-well white opaque plate format at 40,000 cells per well, allowed to seed overnight, and then treated with emulsions at indicated concentrations for one hour. These viability assays utilized the Cell-Titer-Glo 2.0 reagent (Promega, G9243) according to the manufacturer's instructions. Briefly, 100 μL of Cell-Titer-Glo 2.0 reagent, diluted at 1:1 with culture media, was added to each well containing 100 μl emultion-particles-containing media. Plates were gently agitated for 2 minutes and incubated at room temperature for 10 minutes in the dark to promote adequate mixing. Luminescence was subsequently measured using a Victor 5 plate reader (Perkin Elmer). The intensity of luminescence was normalized to that of cells with no emulsion particles added.

Pluronic F127
biocompatibility of emulsion surfactants: biocompatible and nontoxic to the cells

Tween 80
biocompatibility of emulsion surfactants: only Pluronic F127 was found to be biocompatible and nontoxic
